Measurements from patent US20090062369A1, “USE OF SECRETORY PHOSPHOLIPASE A2 (SPLA2) INHIBITORS TO DECREASE SPLA2 LEVELS” (priority 2007, published 2009).

System: serum sPLA2
Assay: Effect of twice-a-day oral A-002 on serum sPLA2 levels in subjects with stable coronary artery disease (Example 6)
Assay type: in vivo, human
Protocol: The protocol for preparing standard curve, test, and quality control samples for use in the assay disclosed herein is set forth in Example 5. Samples are prepared according to this protocol, then loaded in duplicate onto a plate (Cayman catalog no. 485002 or equivalent) that has been pre-coated with a monoclonal sPLA2 antibody (“capture antibody”) that specifically binds sPLA2. In certain embodiments, the capture antibody may interact with a specific form of sPLA2, such as for example sPLA2 type IIA.
sPLA2 acetylcholinesterase:Fab′ conjugate (AChE:Fab′) (“conjugate”) (Cayman catalog no. 485000 or equivalent) is reconstituted in EIA buffer (Cayman catalog no. 400060 or equivalent). Cayman EIA buffer is 1M phosphate, pH 7.0, 1% BSA, 4M NaCl, 10 mM EDTA, and 0.1% sodium azide. Reconstituted conjugate is added to each well of the plate. The conjugate binds a different sPLA2 epitope than the capture antibody, allowing the capture antibody and the conjugate to form a “sandwich” that is immobilized on the plate. Excess reagents are washed away, and the plate is covered and incubated overnight at 2-8° C.
Prior to development, the wells are washed five to six times with wash buffer (Cayman catalog no. 400062 or equivalent). To develop the plate, Ellman's Reagent (Cayman catalog no. 400050 or equivalent) is reconstituted in water and added to each well according to manufacturer instructions. The reconstituted Ellman's Reagent must be used the same day it is prepared because it is unstable. Ellman's Reagent contains an AChE substrate. Specifically, Ellman's Reagent contains acetylthiocholine and 5,5′-dithio-bis-(2-nitrobenzoic acid). Hydrolysis of acetylthiocholine by acetylcholinesterase produces thiocholine, which reacts with 5,5′-dithio-bis-(2-nitrobenzoic acid) to produce 5-thio-2-nitrobenzoic acid. 5-thio-2-nitrobenzoic acid has a strong absorbance at 412 nm. The intensity of absorbance at this wavelength is directly proportional to the concentration of bound conjugate, which is in turn is directly proportional to the concentration of sPLA2 present (Absorbance a [AChE:Fab′ conjugate] α [sPLA2]). During the development step, the plate is shaken, preferably in the dark. In certain embodiments the development time for the assay is 0.5 to 3 hours, preferably 1 to 1.5 hours. At the end of the development period, the high sPLA2 standards should have greater yellow color development than the zero standards. Absorbance of each well is measured at 400-420 nm using a micro-well plate reader. In certain embodiments, absorbance is measured at about 405 nm.
Absorbance readings for duplicate wells are averaged, and the relative standard deviation and % CV are calculated. Standard curve data are used to generate a four parameter curve, and quality control and test samples are measured against the appropriate standard curve (i.e., the standard curve with the same serum content). In order for a test to be considered valid, variation between duplicate wells should be no more than about 25%, and negative controls (blanks) for each standard curve should have a mean absorbance of less than about 0.3.
The method disclosed herein for measuring sPLA2 levels in serum was utilized to determine the effect of administering certain sPLA2 inhibitors on sPLA2 levels in 84 human subjects. The subjects included 24 subjects with diabetes, 32 subjects with metabolic syndrome, and 75 subjects receiving statin treatment. Subjects were administered the sPLA2 inhibitor A-002, a prodrug form of A-001, twice a day at varying dosages from 50 to 500 mg. The structures of A-002and A-001 are set forth below. At two weeks and four weeks after the first administration, sPLA2 levels were measured and compared to pre-administration baseline levels.
84 subjects with stable coronary artery disease were randomized to receive placebo or A-002 via oral administration twice a day over a four week administration period. […]

[1] = A-002 (500 mg), non-statin subgroup of ITT population
[2] = A-002 Total (all dose groups), ITT subjects exhibiting at least 3 out of 5 metabolic syndrome criteria
[3] = A-002 Total (all dose groups), non-statin subgroup of ITT population
[4] = Total (all doses), ITT population
[5] = Total (all doses), diabetes subgroup of ITT population
[6] = Total (all doses), non-diabetes subgroup of ITT population
[7] = Total (all doses), statin subgroup of ITT population

CCc1c(C(=O)C(N)=O)c2c(OCC(=O)OC)cccc2n1Cc1ccccc1 [A-002, [[3-(2-Amino-1,2-dioxoethyl)-2-ethyl-1-(phenylmethyl)-1H-indol-4-yl]oxy]acetic acid methyl ester]
sPLA2 level, Week 4, Range (A-002 (500 mg), ITT subjects exhibiting at least 3 out of 5 metabolic syndrome criteria): 0.05 to 0.10 ng/mL
sPLA2 level, Baseline, Mean [1]: 2.30 ng/mL
sPLA2 level, Baseline, Median [1]: 2.30 ng/mL
sPLA2 level, Baseline, Range [1]: 1.80 to 2.80 ng/mL
sPLA2 level, Change from baseline at week 2, Mean [1]: -2.25 ng/mL
sPLA2 level, Change from baseline at week 2, Median [1]: -2.25 ng/mL
sPLA2 level, Change from baseline at week 2, Range [1]: -2.75 to -1.75 ng/mL
sPLA2 level, Change from baseline at week 4, Mean [1]: -2.08 ng/mL
sPLA2 level, Change from baseline at week 4, Median [1]: -2.08 ng/mL
sPLA2 level, Change from baseline at week 4, Range [1]: -2.40 to -1.75 ng/mL
sPLA2 level, Week 2, Mean [1]: 0.05 ng/mL
sPLA2 level, Week 2, Median [1]: 0.05 ng/mL
sPLA2 level, Week 2, Range [1]: 0.05 to 0.05 ng/ml
sPLA2 level, Week 4, Mean [1]: 0.23 ng/mL
sPLA2 level, Week 4, Median [1]: 0.23 ng/mL
sPLA2 level, Week 4, Range [1]: 0.05 to 0.40 ng/mL
sPLA2 level, Baseline, Mean [2]: 3.17 ng/mL
sPLA2 level, Baseline, Median [2]: 2.70 ng/mL
sPLA2 level, Baseline, Range [2]: 0.05 to 8.80 ng/mL
sPLA2 level, Change from baseline at week 2, Mean [2]: -2.41 ng/mL
sPLA2 level, Change from baseline at week 2, Median [2]: -2.45 ng/mL
sPLA2 level, Change from baseline at week 2, Range [2]: −5.30 to +2.85 ng/ml
sPLA2 level, Change from baseline at week 4, Mean [2]: -2.76 ng/mL
sPLA2 level, Change from baseline at week 4, Median [2]: -2.30 ng/mL
sPLA2 level, Change from baseline at week 4, Range [2]: -6.40 to 0.00 ng/mL
sPLA2 level, Week 2, Mean [2]: 0.65 ng/mL
sPLA2 level, Week 2, Median [2]: 0.30 ng/mL
sPLA2 level, Week 2, Range [2]: 0.05 to 4.00 ng/mL
sPLA2 level, Week 4, Mean [2]: 0.43 ng/mL
sPLA2 level, Week 4, Median [2]: 0.25 ng/mL
sPLA2 level, Week 4, Range [2]: 0.05 to 2.40 ng/mL
sPLA2 level, Baseline, Mean [3]: 2.92 ng/mL
sPLA2 level, Baseline, Median [3]: 2.80 ng/mL
sPLA2 level, Baseline, Range [3]: 1.80 to 4.90 ng/mL
sPLA2 level, Change from baseline at week 2, Mean [3]: -2.13 ng/mL
sPLA2 level, Change from baseline at week 2, Median [3]: -2.00 ng/mL
sPLA2 level, Change from baseline at week 2, Range [3]: -2.75 to -1.75 ng/mL
sPLA2 level, Change from baseline at week 4, Mean [3]: -2.49 ng/mL
sPLA2 level, Change from baseline at week 4, Median [3]: -2.20 ng/mL
sPLA2 level, Change from baseline at week 4, Range [3]: -4.40 to -1.70 ng/mL
sPLA2 level, Week 2, Mean [3]: 0.58 ng/mL
sPLA2 level, Week 2, Median [3]: 0.48 ng/mL
sPLA2 level, Week 2, Range [3]: 0.05 to 1.30 ng/mL
sPLA2 level, Week 4, Mean [3]: 0.65 ng/mL
sPLA2 level, Week 4, Median [3]: 0.50 ng/mL
sPLA2 level, Week 4, Range [3]: 0.05 to 1.20 ng/mL
serum sPLA2 levels (ITT population, stable coronary artery disease, A-002 50, 100, 250 or 500 mg oral twice a day, end of weeks two and four vs baseline, dose-independent): decreased serum sPLA2 levels
sPLA2 Change from baseline at week 2, Mean [4]: -2.35 ng/mL
sPLA2 Change from baseline at week 2, Median [4]: -2.40 ng/mL
sPLA2 Change from baseline at week 2, Range [4]: −5.30 to +2.85 ng/ml
sPLA2 Change from baseline at week 4, Mean [4]: -2.53 ng/mL
sPLA2 Change from baseline at week 4, Median [4]: -2.35 ng/mL
sPLA2 Change from baseline at week 4, Range [4]: -6.40 to 0.20 ng/mL
sPLA2 level, Baseline, Mean [4]: 2.99 ng/mL
sPLA2 level, Baseline, Median [4]: 2.70 ng/mL
sPLA2 level, Baseline, Range [4]: 0.05 to 8.80 ng/mL
sPLA2 level, Week 2, Mean [4]: 0.60 ng/mL
sPLA2 level, Week 2, Median [4]: 0.30 ng/mL
sPLA2 level, Week 2, Range [4]: 0.05 to 4.40 ng/mL
sPLA2 level, Week 4, Mean [4]: 0.51 ng/mL
sPLA2 level, Week 4, Median [4]: 0.35 ng/mL
sPLA2 level, Week 4, Range [4]: 0.05 to 2.40 ng/mL
sPLA2 Change from baseline at week 2, Mean [5]: -2.03 ng/mL
sPLA2 Change from baseline at week 2, Median [5]: -2.40 ng/mL
sPLA2 Change from baseline at week 2, Range [5]: −4.80 to +2.85 ng/ml
sPLA2 Change from baseline at week 4, Mean [5]: -2.31 ng/mL
sPLA2 Change from baseline at week 4, Median [5]: -1.90 ng/mL
sPLA2 Change from baseline at week 4, Range [5]: −5.70 to +0.20 ng/ml
sPLA2 level, Baseline, Mean [5]: 2.91 ng/mL
sPLA2 level, Baseline, Median [5]: 2.75 ng/mL
sPLA2 level, Baseline, Range [5]: 0.05 to 6.00 ng/mL
sPLA2 level, Week 2, Mean [5]: 0.67 ng/mL
sPLA2 level, Week 2, Median [5]: 0.50 ng/mL
sPLA2 level, Week 2, Range [5]: 0.05 to 2.90 ng/mL
sPLA2 level, Week 4, Mean [5]: 0.53 ng/mL
sPLA2 level, Week 4, Median [5]: 0.50 ng/mL
sPLA2 level, Week 4, Range [5]: 0.05 to 1.50 ng/mL
sPLA2 Change from baseline at week 2, Mean [6]: -2.48 ng/mL
sPLA2 Change from baseline at week 2, Median [6]: -2.40 ng/mL
sPLA2 Change from baseline at week 2, Range [6]: -5.30 to -0.40 ng/mL
sPLA2 Change from baseline at week 4, Mean [6]: -2.63 ng/mL
sPLA2 Change from baseline at week 4, Median [6]: -2.45 ng/mL
sPLA2 Change from baseline at week 4, Range [6]: -6.40 to -0.55 ng/mL
sPLA2 level, Baseline, Mean [6]: 3.02 ng/mL
sPLA2 level, Baseline, Median [6]: 2.60 ng/mL
sPLA2 level, Baseline, Range [6]: 0.60 to 8.80 ng/mL
sPLA2 level, Week 2, Mean [6]: 0.57 ng/mL
sPLA2 level, Week 2, Median [6]: 0.30 ng/mL
sPLA2 level, Week 2, Range [6]: 0.05 to 4.40 ng/mL
sPLA2 level, Week 4, Mean [6]: 0.51 ng/mL
sPLA2 level, Week 4, Median [6]: 0.30 ng/mL
sPLA2 level, Week 4, Range [6]: 0.05 to 2.40 ng/mL
sPLA2 Change from baseline at week 2, Mean [7]: -2.37 ng/mL
sPLA2 Change from baseline at week 2, Median [7]: -2.43 ng/mL
sPLA2 Change from baseline at week 2, Range [7]: −5.30 to +2.85 ng/ml
sPLA2 Change from baseline at week 4, Mean [7]: -2.53 ng/mL
sPLA2 Change from baseline at week 4, Median [7]: -2.43 ng/mL
sPLA2 Change from baseline at week 4, Range [7]: −6.40 to +0.20 ng/ml
sPLA2 level, Baseline, Mean [7]: 3.00 ng/mL
sPLA2 level, Baseline, Median [7]: 2.70 ng/mL
sPLA2 level, Baseline, Range [7]: 0.05 to 8.80 ng/mL
sPLA2 level, Week 2, Mean [7]: 0.60 ng/mL
sPLA2 level, Week 2, Median [7]: 0.30 ng/mL
sPLA2 level, Week 2, Range [7]: 0.05 to 4.40 ng/mL
sPLA2 level, Week 4, Mean [7]: 0.50 ng/mL
sPLA2 level, Week 4, Median [7]: 0.30 ng/mL
sPLA2 level, Week 4, Range [7]: 0.05 to 2.40 ng/mL
sPLA2 levels compared to pre-administration baseline (all subject subpopulations (diabetic/non-diabetic, metabolic syndrome/non-metabolic syndrome, statin/non-statin), all dosages 50 to 500 mg twice a day, two and four weeks): substantial decrease in sPLA2 levels
serum sPLA2 levels (diabetic and non-diabetic subpopulations, A-002 50-500 mg oral twice a day, weeks two and four): decrease was observed
serum sPLA2 levels (metabolic syndrome subpopulation, A-002 50-500 mg oral twice a day, weeks two and four): decrease was observed
serum sPLA2 levels (statin and non-statin subpopulations, A-002 50-500 mg oral twice a day, weeks two and four): decrease was observed
